# Reference: paper PMC10057977, “Use of In Vivo Imaging and Physiologically-Based Kinetic Modelling to Predict Hepatic Transporter Mediated Drug–Drug Interactions in Rats” (Pharmaceutics, 2023)
# Where two headings read alike, the source gives them in different places.
# Key:
# [1] = target: rMrp2 (Rattus norvegicus, UniProt Q63120); type: in vivo; parameters: from tissue; host or cells: liver of living male Wistar rats (Charles River Laboratories); settings: for Simple Effect Size (95% CI) kbh: gadoxetate biliary efflux, control − treatment, positive = decrease, site G2
# rMrp2, sequence (Q63120 whole entry): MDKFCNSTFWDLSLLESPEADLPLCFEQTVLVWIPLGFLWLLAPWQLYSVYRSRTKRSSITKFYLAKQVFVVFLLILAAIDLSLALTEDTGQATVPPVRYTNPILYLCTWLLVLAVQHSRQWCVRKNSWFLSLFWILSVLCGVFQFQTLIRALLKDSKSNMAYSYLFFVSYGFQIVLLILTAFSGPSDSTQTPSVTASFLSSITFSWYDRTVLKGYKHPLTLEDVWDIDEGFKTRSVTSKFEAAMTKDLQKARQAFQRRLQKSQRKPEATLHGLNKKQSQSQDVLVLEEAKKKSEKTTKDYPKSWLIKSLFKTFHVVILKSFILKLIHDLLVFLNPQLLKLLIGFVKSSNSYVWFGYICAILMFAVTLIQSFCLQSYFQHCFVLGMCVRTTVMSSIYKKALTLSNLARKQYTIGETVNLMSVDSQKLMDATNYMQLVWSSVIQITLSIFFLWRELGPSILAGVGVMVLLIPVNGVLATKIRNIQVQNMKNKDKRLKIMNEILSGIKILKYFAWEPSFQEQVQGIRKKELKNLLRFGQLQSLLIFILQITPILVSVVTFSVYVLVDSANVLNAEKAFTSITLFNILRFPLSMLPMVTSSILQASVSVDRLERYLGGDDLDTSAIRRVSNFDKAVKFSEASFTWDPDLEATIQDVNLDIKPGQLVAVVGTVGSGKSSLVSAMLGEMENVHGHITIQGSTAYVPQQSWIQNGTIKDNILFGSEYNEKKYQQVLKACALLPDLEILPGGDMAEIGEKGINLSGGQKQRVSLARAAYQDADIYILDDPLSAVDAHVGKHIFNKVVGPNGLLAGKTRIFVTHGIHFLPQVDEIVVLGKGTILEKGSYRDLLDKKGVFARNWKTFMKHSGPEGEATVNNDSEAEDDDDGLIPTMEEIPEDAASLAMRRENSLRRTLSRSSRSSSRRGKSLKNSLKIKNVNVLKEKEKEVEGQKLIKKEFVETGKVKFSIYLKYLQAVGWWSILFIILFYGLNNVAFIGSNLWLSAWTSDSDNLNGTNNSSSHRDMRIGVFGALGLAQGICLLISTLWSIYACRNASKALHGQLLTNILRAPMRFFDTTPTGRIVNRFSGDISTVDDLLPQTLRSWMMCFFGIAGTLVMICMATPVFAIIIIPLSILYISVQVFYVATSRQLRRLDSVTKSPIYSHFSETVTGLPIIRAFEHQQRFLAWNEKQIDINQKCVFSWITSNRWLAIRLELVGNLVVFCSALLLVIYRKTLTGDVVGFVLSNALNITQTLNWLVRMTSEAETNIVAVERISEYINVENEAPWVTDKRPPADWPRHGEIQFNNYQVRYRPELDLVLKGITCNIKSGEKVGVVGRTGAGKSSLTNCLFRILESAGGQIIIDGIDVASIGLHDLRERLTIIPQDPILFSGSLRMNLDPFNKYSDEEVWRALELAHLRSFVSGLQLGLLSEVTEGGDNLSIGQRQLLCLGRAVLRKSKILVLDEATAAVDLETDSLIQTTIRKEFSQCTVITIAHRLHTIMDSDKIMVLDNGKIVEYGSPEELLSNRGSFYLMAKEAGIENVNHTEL
# Excerpt: The tracer-kinetic model was developed to enable estimation of rate constants of hepatobiliary efflux from DCE-MRI profiles in individual animals. In this approach, the liver was assumed to consist of two compartments, the extracellular space (e) and the hepatocytes (h). Since water exchanges rapidly between those spaces, the change in relaxation rate was a weighted average (Equation (4)). (4) ΔR1(t)=r1,e·ve·ce(t)+r1,h·vh·ch(t)
# The proportionality constant, r1,τ [L⋅mmol^−1⋅s^−1] , is the relaxivity of the contrast agent for the compartment τ (extracellular space, e or hepatocytes, h) at the respective field strength, while vτ [mL/mL tissue] is the volume fraction of the compartment τ . Previously measured ex vivo r1,tau values for gadoxetate were used in this work, as per. The underlying assumptions of the PBPK and tracer-kinetic models, relating to physiological volumes and perfusion, are consistent, despite different parameterizations according to the purpose of each model. For example, Vliv,extr in the PBPK model is defined as an absolute volume (units = L; sum of liver plasma and interstitial volumes), while in the tracer-kinetic model, ve is a volume fraction (dimensionless), defined as Vliv,extr/Vliver , where Vliver is the total liver volume. While some analogy can be drawn between CLactive […], and CLbiliary and kbh, the interpretations are distinct. For example, the operating concentrations of the PBPK parameters CLactive […], and CLbiliary are the unbound concentrations of gadoxetate in plasma and hepatocytes, while the tracer-kinetic model is parameterized with respect to the total concentration of gadoxetate.
# Since ce(t) is the input to the hepatocytes, and no backflux from hepatocytes to extracellular space is assumed, Equation (5) can be derived. (5) vh·ch(t)=e^−t/Th∗khe·ce(t) where Th is the mean transit time of gadoxetate in the hepatocytes [min] , and * is convolution. The extracellular space is assumed to be in equilibrium with the blood pool and therefore the concentration ce(t) is proportional to the concentration cp(t) in the plasma of the feeding artery, i.e., ce(t) = (1 − E)·cp(t), where E is the extraction fraction of gadoxetate in the liver. Combining this assumption with Equations (4) and (5), and using (1 − E)·khe = E·Fp, with Fp being the apparent plasma flow into the liver [mL/min/mL tissue volume] , gives Equation (6), the operational equation for gadoxetate DCE-MRI in the liver. (6) ΔR1(t)=(1−E)·ve·r1,p·cp(t)+E·Fp·r1,h ·e^−t/Th ∗cp(t)
# The rate constants were derived as K^trans = E·Fp, khe = E·Fp/(1 − E), and kbh = vh/Th, with a literature value for vh. The plasma concentrations cp(t) were not reliably measured in small animals due to the small diameter of the main vessels compared to the resolution of the measurement. […] Therefore, the source term cp(t) was derived from a two-compartment pharmacokinetic model for gadoxetate (see Supplementary Material, Section S5), and a step function as input in the blood compartment. The parameters kbh and khe were fitted to the liver data using a model implementation in Python. For each rat considered in these studies, the rate constants K^trans, khe, and kbh were calculated, in both control and inhibitory phases. The rate constants of the control and inhibitory phases were compared via calculation of simple (unstandardized) effect sizes (i.e., simple effect size = μcontrol − μtreatment, where μ is the mean average of all subjects) at the 95% confidence level. Statistical significance was assessed through a two-sided paired t-test, with p < 0.05 considered significant.
# [2] = system: OATP1B1; parameters: method as in earlier work; settings: in vitro; bracket not explained in the table; ref 30,43-55 and in-house data from Merck & Co.; cited from earlier work
# [3] = Compartmental pharmacokinetic models of test drugs fitted to published rat data
# Excerpt: For all the selected drugs, compartmental pharmacokinetic models were developed to inform dose selection in the DCE-MRI studies. The one-compartment, two-compartment, or three-compartment pharmacokinetic models, following intravenous and oral administration, were fitted to published pharmacokinetic data for these drugs in rats. The models assumed linear pharmacokinetics of the six drugs investigated, to allow identification of the model parameters with the limited available rat pharmacokinetic data. […] The model equations, sources of pharmacokinetic data, parameters estimates, and criteria for the dose selection for all the drugs are reported in the Supplementary Material, Section S1. […]
# The University of Manchester, Manchester M13 9PL, UK […]
# S1. Pharmacokinetic models for test compounds
# Pharmacokinetic models were developed for selected test compounds to inform dose selection in the dynamic contrast enhanced magnetic resonance imaging (DCE-MRI) studies, as described below. The one-compartment (Eq. S1–
# Eq. S2), two-compartment (Eq. S3–Eq. S5), or three-compartment pharmacokinetic model (Eq. S6 –Eq. S9), following intravenous (IV) and oral administration, was fitted to available pharmacokinetic data in rat (Table S1). The precision of the parameter estimates (% coefficient of variation; CV) was calculated as described previously. […]
# dA1(t) = R + k ∙A (t) − k ∙A (t) for 0 < t < Tinf […]
# dA1(t)= ka ∙AG(t) − k10 ∙ A1(t) for t > Tinf S1 […]
# dA1(t) = R + k ∙A (t) − (k + k )A (t) + k ∙A (t) for 0 < t < Tinf […]
# dA1(t) = k ∙A (t) − (k + k )A (t) + k ∙ A (t) for t > Tinf
# dA2(t)= k A (t) − k A (t) S4
# dA1(t) = Rinf − (k10 + k12 + k13)A1(t) + k21 ∙ A2(t) + k31 ∙ A3(t) for 0 < t < Tinf […]
# dA1(t) = −(k + k + k )A (t) + k ∙ A (t) + k ∙ A (t) for t > Tinf
# dA2(t) = k A (t) − k A (t) S7
# dA3(t) = k A (t) − k A (t) S8
# Initial conditions for oral dose and IV bolus (Rinf=0):
# • Oral dose: AG(0) = dose ∙F, all the other compartments equal to 0;
# • IV bolus: A1(0) = dose, all the other compartments equal to 0.
# Where t is time, An(t) is amount in compartment n at time t; Rinf is IV infusion rate; Tinf is the duration of IV infusion; ka, k10, k12, k21, k13 and k31 are rate constants; V1 is volume of compartment 1; F is oral bioavailability; and Y is the meas-ured drug concentration in plasma or blood.
# These models assume linear kinetics of the test compounds, despite known non-linearity in pharmacokinetics for […]
# The assumption of linear kinetics allowed simplification of the modelling exercise and enabled identification of the model parameters with the available pharmacokinetic data. The models were used to simulate test compound concentrations in plasma under different dosing schedules, to determine suitable doses for in vivo DCE-MRI studies.
# [4] = fraction unbound in plasma; cited from earlier work
# [5] = two-compartment model, rat plasma, fitted to published IV data
# [6] = three-compartment model, rat, IV data (ciclosporin: blood; bosentan: plasma, example estimates)
# [7] = one-compartment model, rat, fitted to published PK data
smiles,measurement,setting,value
"CCOc1ccc(C[C@@H](CN(CCN(CC(=O)[O-])CC(=O)[O-])CC(=O)[O-])N(CC(=O)[O-])CC(=O)[O-])cc1.[Gd+3].[H+].[H+] [gadoxetate, Gadoxetate]","kbh, new value in unified units","[1]; rat, in vivo",1.19 mL/min
same,"kbh, original value","[1]; rat, in vivo",0.14 mL/ min/ mL tissue volume
C=C[C@@H]1C[C@]1(NC(=O)[C@@H]1C[C@@H](Oc2ncc(OC)c3ccc(Cl)cc23)CN1C(=O)[C@@H](NC(=O)OC(C)(C)C)C(C)(C)C)C(=O)NS(=O)(=O)C1CC1 [Asunaprevir],IC50,[2],0.55 µM
same,V1,[3]; [5],96.0 mL
same,k10,[3]; [5],6.79 h⁻¹
same,k12,[3]; [5],3.71 h⁻¹
same,k21,[3]; [5],1.60 h⁻¹
same,decrease in gadoxetate kbh,"[1]; rat, asunaprevir 5 mg/kg iv",31%
COc1ccccc1Oc1c(NS(=O)(=O)c2ccc(C(C)(C)C)cc2)nc(-c2ncccn2)nc1OCCO [Bosentan],IC50,[2],6.6 µM
same,k10,"[3]; three-compartment model, rat, IV data (ciclosporin: blood; bosentan: plasma, example estimates highly sensitive to initial estimates)",5.1 h⁻¹
same,K31,[3]; [6],0.13 h⁻¹
same,V1,[3]; [6],26 mL
same,k12,[3]; [6],6.1 h⁻¹
same,k13,[3]; [6],0.90 h⁻¹
same,k21,[3]; [6],4.3 h⁻¹
same,V1,[3]; [5],32 mL
same,k10,[3]; [5],5.0 h⁻¹
same,k12,[3]; [5],3.8 h⁻¹
same,k21,[3]; [5],3.5 h⁻¹
same,fu,[4],<0.02
same,Simple Effect Size (95% CI) kbh,[1]; bosentan 4–6 mg/kg iv,"0.02 (−0.02, 0.07) mL/min/mL liver"
CCc1ccc(CCOc2ccc(CC3SC(=O)NC3=O)cc2)nc1 (stereo not shown) [Pioglitazone],V1,[3]; [7],88 mL
same,F,"[3]; oral bioavailability, one-compartment model, rat",0.66
same,fu,[4],<0.01
same,decrease in gadoxetate kbh,"[1]; rat, pioglitazone 0.4 mg/kg iv",19%
CO[C@H]1/C=C/O[C@@]2(C)Oc3c(C)c(O)c4c(O)c(c(/C=N/N5CCN(C)CC5)c(O)c4c3C2=O)NC(=O)/C(C)=C\C=C\[C@H](C)[C@H](O)[C@@H](C)[C@@H](O)[C@@H](C)[C@H](OC(C)=O)[C@@H]1C [Rifampicin],IC50,[2],1.9 µM
same,Ki,[2],0.67 µM
same,V1,[3]; [7],182.1 mL
same,k10,[3]; [7],0.294 h⁻¹
same,fu,[4],0.2
same,Simple Effect Size (95% CI) kbh,"[1]; ** p < 0.01, rifampicin 2 mg/kg iv",0.07 mL/min/mL liver
